Source: patent publication US20060004029A1, “Nitrogen-containing aromatic derivatives” (priority 2003, published 2006)

What follows are compounds tested against T1, VEGFR2 (Homo sapiens, UniProt P35968) (assay: Inhibition against receptor tyrosine kinase activity (HTRF), VEGFR2). Conditions: His6-VEGFR2 cytoplasmic domain, biotin-poly(GT), HTRF; read-out: VEGFR2 kinase IC50.
T1 construct: coding for the cytoplasmic domain, beginning with lysine 791 and including the termination codon; made in house; host or cells: Sf9 insect cells, baculovirus (pFastBacHis)
T1 sequence (P35968 786-1356 limits assumed): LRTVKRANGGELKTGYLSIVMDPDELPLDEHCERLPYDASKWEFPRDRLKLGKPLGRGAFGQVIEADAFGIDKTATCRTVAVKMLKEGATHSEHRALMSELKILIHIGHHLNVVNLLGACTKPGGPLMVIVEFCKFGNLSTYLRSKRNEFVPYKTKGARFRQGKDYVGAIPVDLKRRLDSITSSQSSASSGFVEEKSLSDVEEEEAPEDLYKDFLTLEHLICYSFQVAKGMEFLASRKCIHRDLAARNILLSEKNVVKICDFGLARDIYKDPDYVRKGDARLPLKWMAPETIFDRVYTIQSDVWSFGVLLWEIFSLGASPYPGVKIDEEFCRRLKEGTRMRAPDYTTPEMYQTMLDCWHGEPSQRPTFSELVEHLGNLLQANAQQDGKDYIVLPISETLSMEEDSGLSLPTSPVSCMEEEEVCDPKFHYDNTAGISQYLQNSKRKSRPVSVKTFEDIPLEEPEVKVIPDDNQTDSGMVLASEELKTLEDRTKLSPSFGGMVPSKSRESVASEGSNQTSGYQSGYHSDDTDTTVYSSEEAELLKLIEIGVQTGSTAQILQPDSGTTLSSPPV
Assay type: biochemical
Description: This assay is used to determine inhibition of a test substance on tyrosine kinase activity. […] Expression in an appropriate expression system can produce a polypeptide with tyrosine kinase activity. […] The recombinant construct was transfected into insect cells (Spondoptea frugiperda9 (Sf9)) to prepare a recombinant Baculovirus.
For expression of the VEGFR2 tyrosine kinase, Sf9 cells were infected with the VEGFR2 recombinant virus and collected after 48 hours. The collected cells were rinsed with ice-cooled phosphate buffered saline (PBS) and then resuspended using 20 ml of ice-cooled Lysis Buffer (50 mM Tris-HCl (pH 8.5), 5 mM 2-mercaptoethanol, 100 mM KCl, 1 mM phenylmethylsulfonyl fluoride, 1% (v/v) NP-40) per 1.5×10^8 cells. The suspension was centrifuged at 12,000 rpm for 30 minutes at 4° C. and the supernatant was obtained. The supernatant was added to a Ni-NTA agarose column (3 ml, purchased from Qiagen) equilibrated with Buffer A {20 mM Tris-HCl (pH 8.5), 5 mM 2-mercaptoethanol, 500 mM KCl, 20 mM imidazole, 10% (v/v) glycerol}. The column was washed with 30 ml of Buffer A, and then with 6 ml of Buffer B {20 mM Tris-HCl (pH 8.5), 5 mM 2-mercaptoethanol, 1M KCl, 10% (v/v) glycerol}, and finally with 6 ml of Buffer A. After washing, it was eluted with 6 ml of Buffer C {20 mM Tris-HCl (pH 8.5), 5 mM 2-mercaptoethanol, 100 mM KCl, 100 mM imidazole, 10% (v/v) glycerol}. The eluate was placed on a dialysis membrane (purchased from Spectrum Laboratories) and dialyzed with a dialysis buffer {20 mM Tris-HCl (pH 7.5), 10% (v/v) glycerol, 1 mM dithiothreitol, 0.1 mM Na3VO4, 0.1 mM EGTA}. […] Using the same method for the cytoplasmic domains of FGFR1, PDGFRβ and HGFR yielded respective recombinant proteins fused with 6 histidine residues at the N-terminal (His6-FGFR1, His6-PDGFRβ or His6-HGFR).
The tyrosine kinase reaction was conducted as follows. […] Next, 10 μl of 4 μM ATP (diluted with distilled water) was added prior to incubation at 30° C. for 10 minutes, and then 10 μl of 500 mM EDTA (pH 8.0) was added.
The tyrosine phosphorylation rate for the biotin-poly(GT) was expressed as the delta F % value as described in the HTRF Standard Experiment Methods text by CIS Diagnostics Co. The delta F % value in the presence of the test substance was determined as a ratio (%) with the delta F % value with addition of His6-VEGFR2 in the absence of the test substance defined as 100% and the delta F % value in the absence of both the test substance and His6-VEGFR2 defined as 0%.

**Q.** Which IC50 does the source give for `CNC(=O)n1ccc2cc(Oc3ccnc(NC(=O)N4CCC(O)CC4)c3)ccc21` [Example 39, N1-Methyl-5-(2-((4-hydroxypiperidino)carbonyl)amino-4-pyridyl)oxy-1H-1-indolecarboxamide] here?
**A.** Its IC50 is 4.5 nM.

**Q.** With `CNC(=O)n1ccc2cc(Oc3ccnc(NC(=O)N4CCC(C)(O)CC4)c3)ccc21` [Example 41, 5-(2-(((4-Hydroxy-4-methylpiperidin-1-yl)carbonyl)amino)pyridin-4-yloxy)-1H-1-indole-1-carboxylic acid methylamide] as the compound, how does the IC50 read?
**A.** The IC50 was 6.1 nM.

**Q.** `CNC(=O)n1ccc2cc(Oc3ccnc(NC(=O)N4CCC(N5CCCC5)CC4)c3)ccc21` [Example 46, N1-Methyl-5-(2-(((4-(pyrrolidin-1-yl)piperidin-1-yl)carbonyl)amino)pyridin-4-yloxy)-1H-1-indolecarboxamide] was tested. Which IC50 did it give?
**A.** The IC50 was 32 nM.

**Q.** `CNC(=O)n1ccc2cc(Oc3ccnc(NC(=O)N4CCC(N5CCCCC5)CC4)c3)ccc21` [Example 47, N1-Methyl-5-(2-(((4-(piperidin-1-yl)piperidin-1-yl)carbonyl)amino)pyridin-4-yloxy)-1H-1-indolecarboxamide] was tested. Which IC50 did it give?
**A.** Its IC50 is 40 nM.

**Q.** For `CNC(=O)n1ccc2cc(Oc3ccnc(NC(=O)N4CCOCC4)c3)ccc21` [Example 53, N4-(4-(1-(Methylamino)carbonyl-1H-5-indolyl)oxy-2-pyridyl)-4-morpholinecarboxamide], which IC50 is on record?
**A.** Its IC50 is 3.8 nM.
